Key:
POLCO = assay: Example IV: postemergence foliar-applied herbicidal mixtures, cereal crops, POLCO; assay type: in vivo, Polygonum convolvulus (wild buckwheat); conditions: 8.75 gai/ha
Summary of the method: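 Greenhouse plants were grown 7–36 days in potting mix (pH 6.0–6.8) under ~14 h photoperiod at about 18 °C day/17 °C night. Postemergence foliar sprays (12 mL) contained the second cereal herbicide with experimental compound as two- and three-way mixtures.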

ELEIN = assay: Example III: postemergence foliar-applied herbicidal mixtures, weeds common to row crops such as corn and soybeans (greenhouse), ELEIN; assay type: in vivo, Eleusine indica (goosegrass)
Description: The plants were grown for 7-31 days (d) in a greenhouse with an approximate 15 hour (h) photoperiod which was maintained at about 23-29° C. during the day and 22-28° C. during the night.

## COc1c(Cl)ccc(-c2nc(C(=O)OCc3ccccc3)c(Cl)c(N)c2F)c1F [Compound A Benzyl Ester, benzyl ester of 4-amino-3-chloro-5-fluoro-6-(4-chloro-2-fluoro-3-methoxy-phenyl)pyridine-2-carboxylic acid]
POLCO; after 20-22 days
  Weed Control Ob: 50%
POLCO; alone, foliar, 20-22 days
  POLCO Ob (observed value): 50%
ELEIN; 14 DAA, 3.75 gae/ha
  Visual Weed Control (%) Obs: 0%
ELEIN; 17 DAA, 7.5 gae/ha
  Visual Weed Control (%) Obs: 20%
